Assay results as given in paper PMC12004264 (2025).

Legend:
[1] = test system: KRAS (DNA, G4) AGGGCGGTGTGGGAAGAGGGAAGAGGGGGAGG; experiment: fluorescence titration, ligand emission, Hill fit; settings: K+ 100 mM, apparent, PBS 20 mM phosphate, pH 6.8, room temperature, ligand 10 μM
[2] = test system: MYC (DNA, G4) TGAGGGTGGGTAGGGTGGGTAA; experiment: Hoechst 33258 fluorescent displacement; settings: Hoechst 33258 displaced, quenching nearly 35%; tracking lost at higher ligand
[3] = test system: MYC (DNA, G4) TGAGGGTGGGTAGGGTGGGTAA; experiment: CD melting; settings: K+ (concentration not restated for melting); 8 equiv. ligand; 16 μM
[4] = test system: G4 Tel (DNA, G4) AGGGTTAGGGTTAGGGTTAGGG; experiment: CD melting; settings: K+ (concentration not restated for melting); 8 equiv. ligand; 16 μM
[5] = test system: G4 Tel (DNA, G4) AGGGTTAGGGTTAGGGTTAGGG; experiment: fluorescence titration, ligand emission, Hill fit; settings: apparent, ligand 10 μM
[6] = test system: ds26 (DNA, duplex) CAATCGGATCGAATTCGATCCGATTG; experiment: fluorescence titration, ligand emission, Hill fit; settings: K+ 100 mM, apparent, PBS 20 mM phosphate, pH 6.8, room temperature, ligand 10 μM
[7] = test system: MYC (DNA, G4) TGAGGGTGGGTAGGGTGGGTAA; experiment: fluorescence titration, ligand emission, Hill fit; settings: K+ 100 mM, apparent, PBS 20 mM phosphate, pH 6.8, room temperature, ligand 10 μM

COc1ccc(-c2cc3c(cc2-c2cc[n+](C)cc2)c(=O)c2ccccc2n3C)cc1
KD ([1]; Hill n 0.97): 9.62 ± 0.70 µM
binding [2]: yes
ΔTm [3]: 10.7 °C
ΔTm [4]: 0.9 °C
KD ([5]; K+ 100 mM, PBS 20 mM phosphate, pH 6.8, room temperature, Hill n 0.98): 3.30 ± 0.11 µM
KD ([5]; Na+ (Tris-NaCl), Tris-NaCl buffer, room temperature, Hill n 0.80, buffer alone quenches 31%): 2.08 ± 0.07 µM
KD ([6]; Hill n 0.98): 14.95 ± 1.00 µM
KD ([7]; Hill n 1.33): 1.86 ± 0.04 µM

COc1ccc(-c2cc3c(cc2-c2ccncc2)c(=O)c2ccccc2n3C)cc1
KD ([1]; Hill n 8.07): 5.51 ± 0.079 µM
ΔTm [3]: 6.2 °C
ΔTm [4]: 1.7 °C
KD ([5]; K+ 100 mM, PBS 20 mM phosphate, pH 6.8, room temperature, Hill n 7.83): 2.58 ± 0.03 µM
KD ([5]; Na+ (Tris-NaCl), Tris-NaCl buffer, room temperature, Hill n 4.66, buffer alone quenches 44%): 3.45 ± 0.05 µM
KD ([6]; Hill n 15.27): 3.73 ± 0.02 µM
KD ([7]; Hill n 4.68): 10.85 ± 0.30 µM
